What was measured:
[1] = biological target: Cyclin-dependent kinase 11A (Homo sapiens) (UniProt Q9UQ88); assay: Inhibition of wild-type human partial length CDC2L2 (D391 to K730 residues) expressed in bacterial expression system at 1 uM by Kinomescan method relative to control
[2] = biological target: Ribosomal protein S6 kinase alpha-3 (Homo sapiens) (UniProt P51812); assay: Inhibition of wild-type human partial length N-terminal RSK2 kinase domain 1 (M1 to D394 residues) expressed in mammalian expression system at 1 uM by Kinomescan method relative to control
[3] = Lipophilicity, log D of the compound; format: physicochemical; conditions: octanol/water
[4] = biological target: Protein kinase C epsilon type (Homo sapiens) (UniProt Q02156); assay: Inhibition of wild-type human partial length PRKCE (A378 to P737 residues) expressed in mammalian expression system at 1 uM by Kinomescan method relative to control
Protein kinase C epsilon type (Homo sapiens), sequence (Q02156 whole entry, the tested form may be a part): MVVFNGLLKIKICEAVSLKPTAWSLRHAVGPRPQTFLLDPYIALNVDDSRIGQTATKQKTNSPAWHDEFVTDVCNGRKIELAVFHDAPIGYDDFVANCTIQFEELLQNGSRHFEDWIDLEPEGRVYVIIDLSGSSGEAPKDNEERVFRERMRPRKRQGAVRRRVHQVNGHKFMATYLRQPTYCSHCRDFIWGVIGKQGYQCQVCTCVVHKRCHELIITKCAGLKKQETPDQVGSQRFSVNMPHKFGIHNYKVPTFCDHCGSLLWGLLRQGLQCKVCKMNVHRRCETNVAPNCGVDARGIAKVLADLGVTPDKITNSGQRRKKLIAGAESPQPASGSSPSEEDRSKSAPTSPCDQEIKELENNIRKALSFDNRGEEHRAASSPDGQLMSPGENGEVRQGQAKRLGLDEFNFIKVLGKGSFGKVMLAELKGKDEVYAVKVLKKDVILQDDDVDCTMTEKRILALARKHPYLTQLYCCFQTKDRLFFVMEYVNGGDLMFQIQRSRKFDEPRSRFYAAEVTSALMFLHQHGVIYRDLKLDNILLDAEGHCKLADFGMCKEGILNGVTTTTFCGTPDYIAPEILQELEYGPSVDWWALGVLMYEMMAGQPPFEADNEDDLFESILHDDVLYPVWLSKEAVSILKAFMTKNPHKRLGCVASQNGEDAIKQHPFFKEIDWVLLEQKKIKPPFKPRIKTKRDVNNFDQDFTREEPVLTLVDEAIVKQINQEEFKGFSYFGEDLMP

[5] = biological target: Serine/threonine-protein kinase TAO2 (Homo sapiens) (UniProt Q9UL54); assay: Inhibition of wild-type human partial length TAOK2 (M1 to A320 residues) expressed in mammalian expression system at 1 uM by Kinomescan method relative to control
[6] = biological target: Non-receptor tyrosine-protein kinase TYK2 (Homo sapiens) (UniProt P29597); assay: Inhibition of wild-type human partial length TYK2 JH2 pseudokinase domain (G556 to D888 residues) expressed in mammalian expression system at 1 uM by Kinomescan method relative to control
[7] = Protein binding in human plasma assessed as unbound fraction at 2 uM by rapid equilibrium dialysis method; format: ADME, cell-free
[8] = biological target: Cyclin-dependent kinase 3 (Homo sapiens) (UniProt Q00526); assay: Inhibition of wild-type human full length CDK3 (M1 to H305 residues) expressed in bacterial expression system at 1 uM by Kinomescan method relative to control
Cyclin-dependent kinase 3 (Homo sapiens), sequence (Q00526 whole entry, looked up, the tested form may be a part): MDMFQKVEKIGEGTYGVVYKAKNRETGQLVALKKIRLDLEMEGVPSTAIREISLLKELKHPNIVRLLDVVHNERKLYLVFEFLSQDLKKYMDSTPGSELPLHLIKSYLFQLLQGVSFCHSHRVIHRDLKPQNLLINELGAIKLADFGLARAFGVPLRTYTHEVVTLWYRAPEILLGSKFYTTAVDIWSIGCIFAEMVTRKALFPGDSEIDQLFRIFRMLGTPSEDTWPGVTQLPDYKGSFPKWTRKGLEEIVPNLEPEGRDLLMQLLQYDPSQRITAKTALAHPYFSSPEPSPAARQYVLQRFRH

[9] = system: Serine/threonine-protein kinase B-raf (Homo sapiens), P15056 [V600E]; assay: Inhibition of human partial length BRAF V600E mutant (S429 to E741 residues) expressed in mammalian expression system at 1 uM by Kinomescan method relative to control
[10] = biological target: Proto-oncogene tyrosine-protein kinase receptor Ret (Homo sapiens) (UniProt P07949); assay: Inhibition of wild-type human partial length RET (E713 to D1014 residues) expressed in bacterial expression system at 1 uM by Kinomescan method relative to control
[11] = biological target: Serine/threonine-protein kinase tousled-like 1 (Homo sapiens) (UniProt Q9UKI8); assay: Inhibition of wild-type human partial length TLK1 (K447 to A754 residues) expressed in bacterial expression system at 1 uM by Kinomescan method relative to control
[12] = biological target: Calcium/calmodulin-dependent protein kinase type IV (Homo sapiens) (UniProt Q16566); assay: Inhibition of wild-type human partial length CAMK4 (A22 to A322 residues) expressed in bacterial expression system at 1 uM by Kinomescan method relative to control
[13] = biological target: Focal adhesion kinase 1 (Homo sapiens) (UniProt Q05397); assay: Inhibition of wild-type human partial length FAK (D402 to R696 residues) expressed in bacterial expression system at 1 uM by Kinomescan method relative to control
[14] = system: Leucine-rich repeat serine/threonine-protein kinase 2 (Homo sapiens), Q5S007 [G2019S]; assay: Inhibition of human partial length LRRK2 G2019S mutant (H970 to E2527 residues) expressed in mammalian expression system at 1 uM by Kinomescan method relative to control
[15] = biological target: Tyrosine-protein kinase receptor TYRO3 (Homo sapiens) (UniProt Q06418); assay: Inhibition of wild-type human partial length TYRO3 (S497 to T814 residues) expressed in bacterial expression system at 1 uM by Kinomescan method relative to control
[16] = system: Proto-oncogene tyrosine-protein kinase receptor Ret (Homo sapiens), P07949 [M918T]; assay: Inhibition of human partial length RET M918T mutant (E713 to D1014 residues) expressed in bacterial expression system at 1 uM by Kinomescan method relative to control
[17] = biological target: RAC-gamma serine/threonine-protein kinase (Homo sapiens) (UniProt Q9Y243); assay: Inhibition of wild-type human partial length AKT3 expressed in bacterial expression system at 10 uM by Kinomescan method relative to control
[18] = biological target: Receptor-type tyrosine-protein kinase FLT3 (Homo sapiens) (UniProt P36888); assay: Inhibition of wild-type human partial length autoinhibited FLT3 (H564 to Y969 residues) expressed in mammalian expression system at 10 uM by Kinomescan method relative to control
Receptor-type tyrosine-protein kinase FLT3 (Homo sapiens), sequence (P36888 whole entry, the tested form may be a part): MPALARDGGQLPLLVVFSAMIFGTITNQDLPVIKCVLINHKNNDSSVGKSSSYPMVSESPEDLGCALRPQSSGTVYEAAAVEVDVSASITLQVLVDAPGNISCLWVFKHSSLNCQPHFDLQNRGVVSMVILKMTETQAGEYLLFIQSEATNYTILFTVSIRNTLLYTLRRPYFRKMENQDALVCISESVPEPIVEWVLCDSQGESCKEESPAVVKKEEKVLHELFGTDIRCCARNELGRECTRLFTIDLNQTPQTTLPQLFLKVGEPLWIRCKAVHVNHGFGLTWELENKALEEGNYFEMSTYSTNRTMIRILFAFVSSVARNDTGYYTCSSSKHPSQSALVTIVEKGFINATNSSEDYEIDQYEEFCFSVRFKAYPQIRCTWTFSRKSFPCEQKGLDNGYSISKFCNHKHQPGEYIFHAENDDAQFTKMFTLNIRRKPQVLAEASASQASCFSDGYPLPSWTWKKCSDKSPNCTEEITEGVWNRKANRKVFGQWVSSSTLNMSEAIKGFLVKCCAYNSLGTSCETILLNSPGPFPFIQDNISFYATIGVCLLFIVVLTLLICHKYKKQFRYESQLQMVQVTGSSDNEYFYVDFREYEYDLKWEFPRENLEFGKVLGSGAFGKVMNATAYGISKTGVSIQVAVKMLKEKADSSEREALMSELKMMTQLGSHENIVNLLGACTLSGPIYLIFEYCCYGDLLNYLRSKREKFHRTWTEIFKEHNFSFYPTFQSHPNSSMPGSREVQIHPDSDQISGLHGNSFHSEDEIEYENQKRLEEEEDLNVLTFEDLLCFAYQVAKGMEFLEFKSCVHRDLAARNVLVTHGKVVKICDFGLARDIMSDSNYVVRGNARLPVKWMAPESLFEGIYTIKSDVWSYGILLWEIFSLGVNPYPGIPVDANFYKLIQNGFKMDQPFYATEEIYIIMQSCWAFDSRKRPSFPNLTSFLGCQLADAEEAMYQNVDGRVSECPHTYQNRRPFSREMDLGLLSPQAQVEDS

[19] = biological target: Mitogen-activated protein kinase kinase kinase 5 (Homo sapiens) (UniProt Q99683); assay: Inhibition of wild-type human partial length ASK1 (E648 to S964 residues) expressed in bacterial expression system at 10 uM by Kinomescan method relative to control
Mitogen-activated protein kinase kinase kinase 5 (Homo sapiens), sequence (Q99683 whole entry, the tested form may be a part): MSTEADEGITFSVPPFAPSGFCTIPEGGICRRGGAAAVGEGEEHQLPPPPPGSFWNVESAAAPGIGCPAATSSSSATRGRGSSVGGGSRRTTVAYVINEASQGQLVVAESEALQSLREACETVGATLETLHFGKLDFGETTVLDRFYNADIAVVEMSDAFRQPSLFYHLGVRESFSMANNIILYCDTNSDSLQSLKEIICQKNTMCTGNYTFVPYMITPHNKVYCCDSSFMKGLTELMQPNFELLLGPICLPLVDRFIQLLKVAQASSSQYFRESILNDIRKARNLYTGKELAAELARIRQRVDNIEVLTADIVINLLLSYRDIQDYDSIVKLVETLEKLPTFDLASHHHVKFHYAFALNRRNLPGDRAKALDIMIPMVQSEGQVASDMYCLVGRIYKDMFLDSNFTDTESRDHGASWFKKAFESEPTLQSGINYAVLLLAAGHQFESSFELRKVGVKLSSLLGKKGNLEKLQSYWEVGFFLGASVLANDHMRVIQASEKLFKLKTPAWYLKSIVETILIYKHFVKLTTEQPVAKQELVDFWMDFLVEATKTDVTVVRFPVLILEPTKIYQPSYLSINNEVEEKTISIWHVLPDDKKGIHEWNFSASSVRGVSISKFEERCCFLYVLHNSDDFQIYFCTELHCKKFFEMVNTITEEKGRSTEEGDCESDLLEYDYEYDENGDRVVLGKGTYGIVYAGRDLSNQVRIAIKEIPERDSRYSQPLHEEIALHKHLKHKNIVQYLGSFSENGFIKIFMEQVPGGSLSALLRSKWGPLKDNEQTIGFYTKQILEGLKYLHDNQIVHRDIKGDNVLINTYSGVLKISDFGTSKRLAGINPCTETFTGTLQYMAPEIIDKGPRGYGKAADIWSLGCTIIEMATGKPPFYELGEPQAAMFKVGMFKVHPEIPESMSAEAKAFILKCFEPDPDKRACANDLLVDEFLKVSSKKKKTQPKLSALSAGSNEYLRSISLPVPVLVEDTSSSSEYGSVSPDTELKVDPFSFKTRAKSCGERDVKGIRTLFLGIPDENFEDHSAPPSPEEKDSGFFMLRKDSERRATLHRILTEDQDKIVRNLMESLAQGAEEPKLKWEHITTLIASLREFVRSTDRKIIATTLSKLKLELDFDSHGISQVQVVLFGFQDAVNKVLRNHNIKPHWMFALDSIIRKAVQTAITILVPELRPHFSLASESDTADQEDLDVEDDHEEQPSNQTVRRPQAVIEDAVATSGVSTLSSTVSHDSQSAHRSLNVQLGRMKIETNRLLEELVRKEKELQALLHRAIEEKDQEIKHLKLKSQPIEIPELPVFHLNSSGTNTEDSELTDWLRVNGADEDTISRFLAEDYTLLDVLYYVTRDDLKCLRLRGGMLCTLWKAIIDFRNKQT

[20] = biological target: Death-associated protein kinase 3 (Homo sapiens) (UniProt O43293); assay: Inhibition of wild-type human partial length DAPK3 (M1 to A277 residues) expressed in bacterial expression system at 10 uM by Kinomescan method relative to control
[21] = biological target: Microtubule-associated serine/threonine-protein kinase 1 (Homo sapiens) (UniProt Q9Y2H9); assay: Inhibition of wild-type human partial length MAST1 (S346 to V730 residues) expressed in mammalian expression system at 10 uM by Kinomescan method relative to control
[22] = biological target: Protein kinase C epsilon type (Homo sapiens) (UniProt Q02156); assay: Inhibition of wild-type human partial length PRKCE (A378 to P737 residues) expressed in mammalian expression system at 10 uM by Kinomescan method relative to control
[23] = biological target: Serine/threonine-protein kinase Sgk3 (Homo sapiens) (UniProt Q96BR1); assay: Inhibition of wild-type human partial length SGK3 (M119 to L496 residues) expressed in mammalian expression system at 10 uM by Kinomescan method relative to control
[24] = biological target: High affinity nerve growth factor receptor (Homo sapiens) (UniProt P04629); assay: Inhibition of wild-type human partial length TRKA (G475 to G790 residues) expressed in mammalian expression system at 10 uM by Kinomescan method relative to control
[25] = Solubility of the compound at pH 6.8; format: physicochemical; conditions: buffer
[26] = biological target: Mitogen-activated protein kinase kinase kinase 3 (Homo sapiens) (UniProt Q99759); assay: Inhibition of wild-type human partial length MAP3K3 (E320 to Y626 residues) expressed in mammalian expression system at 10 uM by Kinomescan method relative to control
Mitogen-activated protein kinase kinase kinase 3 (Homo sapiens), sequence (Q99759 whole entry, the tested form may be a part): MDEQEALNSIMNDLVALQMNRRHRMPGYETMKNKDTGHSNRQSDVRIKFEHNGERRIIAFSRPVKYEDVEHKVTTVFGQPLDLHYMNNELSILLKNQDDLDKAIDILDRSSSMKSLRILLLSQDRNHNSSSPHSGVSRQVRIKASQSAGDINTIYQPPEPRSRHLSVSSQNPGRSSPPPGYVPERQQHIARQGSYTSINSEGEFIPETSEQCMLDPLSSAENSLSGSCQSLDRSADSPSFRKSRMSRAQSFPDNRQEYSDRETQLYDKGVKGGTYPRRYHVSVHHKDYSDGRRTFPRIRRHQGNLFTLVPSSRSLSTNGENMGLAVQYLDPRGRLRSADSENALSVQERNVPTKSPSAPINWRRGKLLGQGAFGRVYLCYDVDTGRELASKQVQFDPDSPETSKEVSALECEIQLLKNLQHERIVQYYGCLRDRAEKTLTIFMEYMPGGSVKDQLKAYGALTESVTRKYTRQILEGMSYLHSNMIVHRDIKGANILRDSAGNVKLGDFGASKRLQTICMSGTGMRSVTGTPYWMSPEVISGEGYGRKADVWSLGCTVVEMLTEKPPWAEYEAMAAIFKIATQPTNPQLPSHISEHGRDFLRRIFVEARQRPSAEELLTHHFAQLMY

[27] = system: Receptor-type tyrosine-protein kinase FLT3 (Homo sapiens), P36888 [UNDEFINED MUTATION]; assay: Inhibition of human partial length FLT3 ITD/D835V double mutant expressed in bacterial expression system at 10 uM by Kinomescan method relative to control
Receptor-type tyrosine-protein kinase FLT3 (Homo sapiens), P36888 [UNDEFINED MUTATION], sequence (P36888 whole entry, looked up, stated change not applied, the tested form may be a part): as the sequence (P36888 whole entry, the tested form may be a part) above

[28] = biological target: Cyclin-dependent kinase 16 (Homo sapiens) (UniProt Q00536); assay: Inhibition of wild-type human partial length PCTK1 (G160 to A474 residues) expressed in mammalian expression system at 10 uM by Kinomescan method relative to control
[29] = biological target: Inhibitor of nuclear factor kappa-B kinase subunit alpha (Homo sapiens) (UniProt O15111); assay: Inhibition of wild-type human full length IKK-alpha (M1 to E745 residues) expressed in mammalian expression system at 10 uM by Kinomescan method relative to control

`O=C(Nc1cccc([C@@H]2CN(c3ncnc4[nH]ccc34)CCN2CCO)c1)Nc1c(F)cccc1N1CCCC1` gave an inhibition [1] of 96%, an inhibition [2] of 94% and a logD [3] of 2.6. It also gave an inhibition [4] of 72%, an inhibition [5] of 85% and an inhibition [6] of 71%. The Fu [7] was 1%, the inhibition [8] was 88% and the inhibition [9] was 72%. The inhibition [10] was 0.3%, the inhibition [11] was 100% and the inhibition [12] was 100%. It also gave an inhibition [13] of 90%, an inhibition [14] of 100% and an inhibition [15] of 100%. It also gave an inhibition [16] of 0.05%.
With `O=C(Nc1cccc([C@H]2CCCN(c3ncnc4[nH]ccc34)C2)c1)Nc1ccccc1N1CCCC1` the inhibition [17] was 100%, the inhibition [18] was 72% and the inhibition [19] was 100%. It also gave an inhibition [20] of 4.1%, an inhibition [21] of 69% and an inhibition [22] of 59%. The inhibition [23] was 40%, the inhibition [24] was 26% and the solubility [25] was < 1 µg/mL. The inhibition [26] was 24%, the inhibition [27] was 8.3% and the inhibition [28] was 70%. It also gave an inhibition [29] of 27%.
